# Measured values as given in US20120265121A1, “PHTHALOCYANINE-BASED ANTIFUNGAL AGENTS” (CASE WESTERN RESERVE UNIVERSITY, priority 2011, published 2012).
# How the values were obtained:
# [1] = tested on: C. albicans (strain SC-5134); assay: Colony forming unit (CFU) phototoxicity assay; type: cell-based, Candida albicans
# Experimental: Colonies Formation Assay: Briefly, the 1 ml of each treatment condition was diluted into 1:10,000, 1:50,000 or 1:100,000 and plated 100 μL onto Sabouraud dextrose agar plate (Becton Dickinson, New Jersey, USA). All plates were incubated at 37° C. and colonies were imaged and counted the following day for each plate/condition.
# Pc 4-Photodynamic Treatment Conditions: The phthalocyanine photosensitizer Pc 4 was kindly provided by Dr. Malcolm E. Kenney (Department of Chemistry, Case Western Reserve University, Cleveland, Ohio, USA). Stock solutions (0.5 mM) of Pc 4 were prepared in N′,N′-dimethylformamide (DMF, ThermoFisher, Waltham, Mass., USA) and stored at 4° C. in the dark. C. albicans cultures were incubated with Pc 4 concentrations ranging from 0.1 to 1.0 μM in 1× PBS containing 10% FBS for at least 1 hr at 37° C. in the dark and subsequently irradiated with red light using a light-emitting diode array (EFOS, Mississauga, Ontario, Canada) at a fluence ranging from 1.0 to 2.0 J/cm^2 (1.0 mW/cm^2, λmax ˜670-675 nm) at room temperature.
# Colony forming unit (CFU) phototoxicity assay: CFU assay was done as described by Chandra et al. with minor modifications. […] After 24 hours, colonies were counted by eye, and all the percentage of surviving cells from the Pc 4-PDT cultures was normalized against that of cultures exposed to Pc 4 or light alone. […]
# [2] = tested on: C. albicans (strain SC-5134); assay: XTT reduction metabolic activity assay; type: cell-based, Candida albicans
# Experimental: Metabolic Activity Assay: XTT reduction assays were performed according to the procedure of Chandra et al. Chandra et al., Nature Protocol. 3(12): 1909-2 (2008). Briefly, in the dark, aliquots of 2 ml of cells were treated with 200 nM of Pc 4 in 10% FBS standard growth medium in a 37° C. shaker. The next day, the cells were photoirradiated with red light using a light-emitting diode array (EFOS, Mississauga, Ontario, Canada) at a fluence of 200, 500, 1000 and 2000 mil/cm^2 (1 milliwat/cm^2, ymax ˜670-675 nm) at room temperature. For negative controls, a 2 ml aliquot was not photoirradiated and a 2 ml aliquot simply was loaded overnight with an appropriate amount of N′,N′-dimethylformamide and then photoirridated with the highest fluence the next day. For positive control, either cells were treated with 30% ethanol or 1 uM of Thapsigargin. […] One ml of each treatment condition was used to incubate with XTT (final concentration 1 mg/ml) and menadione (final concentration 1 mM) for 5 hours in the dark and then transferred to 1 ml plastic cuvette for absorbance measurement. Colorimetric changes, which reflect the viability of the cells given different treatment conditions, were measured at 492-nm using a spectrophotometer (Spectronic Genesys™ 5, Analytical Instrument, Golden Valley, Minn., USA). […]
# [3] = tested on: C. albicans (strain SC-5134); assay: DNA fragmentation by agarose gel electrophoresis; type: cell-based, Candida albicans
# Experimental: Subsequently, C. albicans total chromosomal DNA was extracted using the MasterPure™ Yeast DNA Purification Kit (Epicentre Biotechnologies, Madison, Wis., USA) per the manufacturer's protocol. Extracted DNA concentrations were determined with a spectrophotometer (Nanodrop™ 3000, ThermoFisher Scientific, Waltham, Mass., USA) at a wavelength range of 260-280 nm. DNA (3.0 μg) was loaded onto a 1.0% (w/v) agarose gel (Bioexpress, Kaysbille, Utah, USA) impregnated with ethidium bromide (ThermoFisher, Waltham, Mass., USA) and subjected to electrophoresis. The gel was subsequently visualized using a UV transilluminator (VersaDoc™, Bio-Rad, Hercules, Calif., USA).
# [4] = topical application; cited from earlier work
compound,measurement,setting,value
"CN(C)CCC[Si](C)(C)O[Si]1(O)n2c3c4ccccc4c2N=C2N=C(N=c4c5ccccc5c(n41)=NC1=NC(=N3)c3ccccc31)c1ccccc12 (stereo not shown) [Pc 4, HOSiPcOSi(CH3)2(CH2)3N(CH3)2]",cell killing / reduction of cell survival (CFU),"[1]; 1.0 μM Pc 4, light at 2.0 J/cm^2 (670-675 nm)",4 logs
same,effect of photosensitizer alone on cell proliferation and cell death,"[1]; highest dose of Pc 4, no light, compared to untreated cells",neither the highest dose of photosensitizer alone nor light alone affected cell proliferation and cell death
same,"metabolic activity (XTT, percent viability), FIG. 1",[2]; 200 nM Pc 4 + 0.2-2.0 J/cm^2,impairs fungal metabolic activity
same,reduction of metabolic activity (XTT),"[2]; highest Pc 4-PDT dose (1.0 μM, 2.0 J/cm^2), within an hour following photoirradiation",~50%
same,DNA fragmentation,[3]; 0.4 μM Pc 4-PDT,clear evidence of DNA degradation
same,DNA fragmentation,[3]; 0.6 μM Pc 4-PDT,matched that of the hydrogen peroxide positive control
same,penetration through stratum corneum and epidermis,[4],penetrate through the stratum corneum and epidermis
